Measured values: a melting point compilation (Tetko et al.; mined from patent text by program, amines drawn as free bases though some values may be those of a salt)

| Structure (SMILES) | melting point |
| --- | --- |
| C[C@@H](O)[C@@H](OCc1ccccc1)[C@H](OCc1ccccc1)[C@@H](C)O | 46 to 50 °C |
| Cc1c(-n2ccnc2)n(CCCCCCCC(=O)O)c2ccccc12 | 101 to 103 °C |
| O=C(O)C1=CSC2CC(=O)N12 (stereo not given) | 235 °C |
| CC(C(=O)Nc1ccc(-n2nc(C(F)(F)F)cc2C(F)(F)F)cc1)c1ccc(C(=O)c2cccs2)cc1 (stereo not given) | < 80 °C |
| CN(C)C(=O)CCC(=O)c1ccccc1 | 56 to 58 °C |
| CCN1c2ncccc2C(=NOC)Nc2c(C)cc(C)nc21 | 164 to 166 °C |
| O=[N+]([O-])c1ccc(NCCF)nc1 | 126 to 127 °C |
| CNC(=O)Nc1ccc(C2=NNC(=O)CC2C)cn1 (stereo not given) | 257 to 259 °C |
| COc1cc(C2OCCO2)cc(I)c1O | 120 to 121 °C |
| O=C1C=C(c2ccccc2O)CC1 | 162 to 165 °C |
| CCCCCCCCCCCCCCOc1ccc(C(C)=O)o1 | 70 to 72 °C |
| CCCCCCCCNCC(O)COc1ccc(SC)cc1 (stereo not given) | 79.5 to 80.5 °C |
| Cc1[nH]cnc1CSCCN=CNS(=O)(=O)c1ccccc1 | 48 to 51 °C |
| C[C@H](NC(=O)OC(C)(C)C)C(=O)NC1CCC(Nc2cccc3c2C(=O)c2ccccc2C3=O)CC1 (stereo not given in full) | 151 °C |
| CCNC(=N)NC(=O)Cc1ccccc1OC | 127 to 128 °C |
| CC1CC(=O)N(c2ccccc2)c2cc(Cl)ccc2N1C (stereo not given) | 113 to 114 °C |
| N#CC[C@H](NC(=O)c1ccc2ccccc2c1)C(=O)O | 95 to 100 °C |
| C=CCn1c(=O)c2c(nc(/C=C/c3cc(OC)c(O)c(OC)c3)n2C)n(CC=C)c1=O | 239 to 240 °C |
| COC(=O)Cn1nnnc1-c1c(Cl)c(Cl)cc2[nH]c(=O)c(=O)[nH]c12 | 281 to 283 °C |
| CCCCCCCCCc1ccc(C(=O)CCCCC(=O)O)cc1 | 29 to 31 °C |

| Structure (SMILES) | melting point |
| --- | --- |
| O=C(c1ccc(OCC2CO2)cc1)c1cccc(C(=O)c2ccc(OCC3CO3)cc2)c1 (stereo not given) | 88 to 93 °C |
| CCCCCCCCc1ccc(C(O)CCCCCC(=O)OC)cc1 (stereo not given) | 49 to 50 °C |
| CCCOc1n[nH]c(=O)[nH]1 | 156 °C |
| COC(=O)C=Cc1cc(F)ccc1C(=O)O | 151 to 153 °C |
| OCC1OC(n2c(Cl)nc3cc(Br)ccc32)C(O)C1O (stereo not given) | 154 to 155 °C |
| CCCNC(=O)C1(CCC)c2ccccc2Sc2ccccc21 | 132 to 133 °C |
| O=C1NC(=O)C(Cc2ccc(OCC3CN(c4ccccn4)CCO3)cc2)S1 (stereo not given) | 139 to 142 °C |
| COCC(=O)N(CC(C)=O)c1c(C)cccc1C | 56 to 57 °C |
| c1ccc(-c2nc(SCCOCCSc3nc(-c4ccccc4)c(-c4ccccc4)[nH]3)[nH]c2-c2ccccc2)cc1 | 232 to 234 °C |
| CCNC(=O)c1cc(NCn2nnc3ccccc32)ccc1[Si](C)(C)C | 207 to 208 °C |
| O=C1Nc2cc(Cl)ccc2OC1CCO (stereo not given) | 135 to 138 °C |
| CCCSC1=Nc2ccccc2SN1 | 168 to 170 °C |
| CC[C@H]1[C@H](O)[C@@H](C)C(=O)N1c1ccc(C#N)c(Cl)c1 | 120 to 123 °C |
| CCCCN(CCCC)c1ccc(C=CC2=CC(=CC=CC3=C(C#N)C(=C(C#N)C#N)OC3(c3ccccc3)C(F)(F)F)CC(C)(C)C2)c(OC)c1 (stereo not given) | 164 to 166 °C |
| CCOCCNc1nc(C)c(CCO)c(=O)n1C | 194 °C |
| CC(=O)C1CC2CCC1(COC(=O)Oc1ccccc1)CC2 (stereo not given) | 74 to 75 °C |
| Fc1ccc(CN(C(=S)Nc2ccccc2)C2CCCC2)cc1 | 135 °C |
| COc1c2c(c(OC)c(OC)c1OC)CCC(=O)CC2 | 77 to 78 °C |
| CC(=Cc1cccc2ccccc12)[N+](=O)[O-] | 64 to 67 °C |

Continued, values first:

| melting point | Structure (SMILES) |
| --- | --- |
| 69 to 70 °C | COc1cccc2c(Cc3nc(CCc4ccccc4)co3)coc12 |
| 79 to 83 °C | C[C@@H](NC(=O)c1noc(-c2ccc(Cl)cc2)n1)[C@](O)(Cn1cncn1)c1ccc(F)cc1F |
| 167 to 169 °C | Clc1ccc2c(c1)N=C(NCc1cccnc1)c1ccccc1O2 |
| 210 to 215 °C | COc1cc(Nc2c(C#N)cnc3cc4cc(OCCN5CCC(O)CC5)c(OC)cc4cc23)c(Cl)cc1C |
| 150 to 151 °C | CCCCc1nc(Cl)c(CC=CO)n1Cc1ccc(NC(=O)c2ccccc2C(=O)O)cc1 |
| 144 °C | Cc1cc(-c2cc(C(F)F)n3ncc(I)c3n2)ccc1Cl |
| 175 to 177 °C | O=C1CC=C(c2c[nH]c3cc([N+](=O)[O-])ccc23)CC1 |
| 288 to 289 °C | CC(C)(C)c1ccc(C(=O)Nc2cn3cc(-c4cccnc4)ccc3n2)cc1 |
| 107 to 109 °C | Cc1cn(C(C)(C(=O)N(C)C)c2ccccc2)nc1-c1ccccc1 (stereo not given) |
| 229 to 231 °C | CC(=O)c1c[nH]c(Cc2ccc(O)cc2)n1 |
| 168 to 169 °C | COCCOCCCn1c(C=O)c(Br)c2c3c(c(-c4ccccc4Cl)cc21)C(=O)NC3=O |
| 97 to 104 °C | CC(C)c1ccc(C(F)(F)C(F)(F)c2ccccc2)cc1 |
| 205 to 206 °C | CN1C=C(C(=O)O)C(=O)CC1c1ccc(Cl)cc1 (stereo not given) |
| 72 to 73.5 °C | COC(=O)COc1noc2ccc([N+](=O)[O-])cc12 |
| 92 to 93 °C | Cc1cc(-c2oncc2CO)ccc1Cl |
| 126 to 127 °C | Cc1cccc(-c2ccnc3ccnn23)n1 |
| 173 to 174 °C | Cc1ccc2oc(=O)n(-c3ccnc(N)c3)c2c1 |
| > 260 °C | Cc1nc2cccnc2c(O)c1C(=O)c1ccccc1 |

| melting point | Structure (SMILES) |
| --- | --- |
| 193 to 199 °C | COc1ccc(S(=O)(=O)Nc2ccc(C)cc2)c2c3ccccc3n(C=O)c12 |
| 165 to 167 °C | O=Nc1c(-c2ccccc2)nc2ccccn12 |
| 180 to 181 °C | CCOC(=O)c1ccn2nc(-c3ccccc3)cc2n1 |
| 210 to 211 °C | Nc1ccc(Nc2ncnc3cc(-c4ccccc4)sc23)cc1 |
| 176 °C | Cn1cnc(COc2nn3c(-c4ccccc4F)nnc3cc2C2CCC2)c1 |
| 126 to 128 °C | CCOC(=O)C(C#N)=Cc1c(Cl)n(Cc2ccc(OC)cc2)c2ccccc12 |
| 75 to 80 °C | CCCCC(c1cccc(C(F)(F)F)c1)n1ccc2cc(-c3ccccc3-c3nn[nH]n3)ccc21 (stereo not given) |
| 176 °C | COCCOc1ccc2ccc(N)nc2n1 |
| 170 to 172 °C | N#Cc1ccc2nc(C(O)(Cn3cncn3)c3ccc(F)cc3F)sc2c1 (stereo not given) |
| 91.1 °C | CCCn1nnn(-c2ccc([N+](=O)[O-])cc2)c1=O |
| 56 °C | Cc1ccc(-c2nsc3ccccc23)cc1 |
| 117 to 118 °C | Cc1nnc(COc2ccc(NC(=O)/C=C/c3cnn(C)c3-c3ccc(F)cc3)cc2)o1 |
| 188 to 192 °C | CCc1cnc(N2CCC(c3nc4cc(-c5ccc(-n6cnnn6)cc5F)ccc4o3)CC2)nc1 |
| 156 to 158 °C | Cc1cc(C2(C(F)(F)C(F)(F)C(F)(F)F)CC(c3ccc(Cl)cc3)=NO2)ccc1NC(=O)c1cccc(I)c1C(=O)NC(C)C (stereo not given) |
| 168 to 170 °C | CC(C)OC(=O)c1cn(Cc2c(F)cccc2F)c2nc(-c3ccc(N)cc3)c(CN(C)Cc3ccccc3)n2c1=O |
| 98 to 99 °C | COC(=O)c1cccc2c(I)c(OC)ccc12 |
| 131 to 132 °C | CC(=O)Nc1ccc(F)cc1C |
| 101 to 102 °C | CCCc1c(OCCCOc2ccc(C(=O)OCC)cc2Cl)ccc(C(C)=O)c1O |
